Reference: ChEMBL document CHEMBL4665709, “Rational Avoidance of Protease Cleavage Sites and Symmetrical End-Tagging Significantly Enhances the Stability and Therapeutic Potential of Antimicrobial Peptides” (J Med Chem, 2020)
Values after ≈ are worked out from the molar mass of the structure shown. Where a SMILES comes first, the peptide text is derived from it.

What was measured:
[1] = Therapeutic index, ratio of MHC for human RBC to geometric mean of peptide MIC for Streptococcus agalactiae H92; format: toxicity; conditions: human red blood cells (RBC), read-out: TI
[2] = Therapeutic index, ratio of MHC for human RBC to geometric mean of peptide MIC for Staphylococcus epidermidis ATCC 12228; format: toxicity; conditions: human red blood cells (RBC), read-out: TI
[3] = Therapeutic index, ratio of MHC for human RBC to geometric mean of peptide MIC for methicillin-resistant Staphylococcus aureus 43300; format: toxicity; conditions: human red blood cells (RBC), read-out: TI
[4] = Therapeutic index, ratio of MHC for human RBC to geometric mean of peptide MIC for Enterococcus faecalis ATCC 29212; format: toxicity; conditions: human red blood cells (RBC), read-out: TI
[5] = Therapeutic index, ratio of MHC for human RBC to geometric mean of peptide MIC for Staphylococcus aureus ATCC 29213; format: toxicity; conditions: human red blood cells (RBC), read-out: TI
[6] = Therapeutic index, ratio of MHC for human RBC to geometric mean of peptide MIC for Staphylococcus aureus 11011; format: toxicity; conditions: human red blood cells (RBC), read-out: TI
[7] = Therapeutic index, ratio of MHC for human RBC to geometric mean of peptide MIC for Salmonella pullorum 7913; format: toxicity; conditions: human red blood cells (RBC), read-out: TI
[8] = Therapeutic index, ratio of MHC for human RBC to geometric mean of peptide MIC for Salmonella typhimurium 7731; format: toxicity; conditions: human red blood cells (RBC), read-out: TI
[9] = Therapeutic index, ratio of MHC for human RBC to geometric mean of peptide MIC for Salmonella choleraesuis 503; format: toxicity; conditions: human red blood cells (RBC), read-out: TI
[10] = Therapeutic index, ratio of MHC for human RBC to geometric mean of peptide MIC for Escherichia coli UB1005; format: toxicity; conditions: human red blood cells (RBC), read-out: TI
[11] = Therapeutic index, ratio of MHC for human RBC to geometric mean of peptide MIC for Salmonella typhimurium 14028; format: toxicity; conditions: human red blood cells (RBC), read-out: TI
[12] = Therapeutic index, ratio of MHC for human RBC to geometric mean of peptide MIC for Escherichia coli ATCC 25922; format: toxicity; conditions: human red blood cells (RBC), read-out: TI
[13] = system: Staphylococcus aureus; experiment: Antibacterial activity against Staphylococcus aureus ATCC 29213 after 18 to 24 hrs by CLSI-based broth microdilution method; format: functional; conditions: time hrs 18-24
[14] = system: Staphylococcus aureus; experiment: Antibacterial activity against Staphylococcus aureus 11011 after 18 to 24 hrs by CLSI-based broth microdilution method; format: functional; conditions: time hrs 18-24
[15] = system: Escherichia coli; experiment: Antibacterial activity against Escherichia coli ATCC 25922 after 18 to 24 hrs by CLSI-based broth microdilution method; format: functional; conditions: time hrs 18-24
[16] = system: Escherichia coli; experiment: Antibacterial activity against Escherichia coli UB1005 after 18 to 24 hrs by CLSI-based broth microdilution method; format: functional; conditions: time hrs 18-24
[17] = system: Salmonella typhimurium; experiment: Antibacterial activity against Salmonella typhimurium 14028 after 18 to 24 hrs by CLSI-based broth microdilution method; format: functional, Salmonella enterica subsp. enterica serovar Typhimurium; conditions: Salmonella enterica, time hrs 18-24
[18] = system: Salmonella typhimurium; experiment: Antibacterial activity against Salmonella typhimurium 7731 after 18 to 24 hrs by CLSI-based broth microdilution method; format: functional, Salmonella enterica subsp. enterica serovar Typhimurium; conditions: Salmonella enterica, time hrs 18-24
[19] = Antibacterial activity against Salmonella pullorum 7913 after 18 to 24 hrs by CLSI-based broth microdilution method; format: functional, Salmonella enterica subsp. enterica serovar Pullorum; conditions: Salmonella enterica, time hrs 18-24
[20] = system: Salmonella enterica; experiment: Antibacterial activity against Salmonella choleraesuis 503 after 18 to 24 hrs by CLSI-based broth microdilution method; format: functional; conditions: time hrs 18-24
[21] = system: Staphylococcus epidermidis; experiment: Antibacterial activity against Staphylococcus epidermidis ATCC 12228 after 18 to 24 hrs by CLSI-based broth microdilution method; format: functional; conditions: time hrs 18-24
[22] = system: Enterococcus faecalis; experiment: Antibacterial activity against Enterococcus faecalis ATCC 29212 after 18 to 24 hrs by CLSI-based broth microdilution method; format: functional; conditions: time hrs 18-24
[23] = system: Staphylococcus aureus; experiment: Antibacterial activity against methicillin-resistant Staphylococcus aureus 43300 after 18 to 24 hrs by CLSI-based broth microdilution method; format: functional; conditions: time hrs 18-24
[24] = system: Streptococcus agalactiae; experiment: Antibacterial activity against Streptococcus agalactiae H92 after 18 to 24 hrs by CLSI-based broth microdilution method; format: functional; conditions: time hrs 18-24
[25] = system: Erythrocyte; experiment: Hemolytic activity in human RBC assessed as hemolysis; format: ADME, cell-based
[26] = Hemolytic activity in human RBC assessed as hemolysis at 1 to 128 uM relative to control; format: ADME, cell-based, Erythrocyte; conditions: human red blood cells (RBC), dose 1-128 µM, read-out: Activity
[27] = Cytotoxicity against mouse RAW264.7 cells assessed as cell viability at 128 uM by MTT assay relative to control; format: cell-based; conditions: read-out: Activity
[28] = Cytotoxicity against HEK-293T cells assessed as cell viability at 128 uM by MTT assay relative to control; format: cell-based; conditions: human, read-out: Activity

| Structure (SMILES) | selectivity ratio [1] | selectivity ratio [2] | selectivity ratio [3] | selectivity ratio [4] | selectivity ratio [5] | selectivity ratio [6] | selectivity ratio [7] | selectivity ratio [8] | selectivity ratio [9] | selectivity ratio [10] | selectivity ratio [11] | selectivity ratio [12] | MIC [13] | MIC [14] | MIC [15] | MIC [16] | MIC [17] | MIC [18] | MIC [19] | MIC [20] | other results |
| --- | --- | --- | --- | --- | --- | --- | --- | --- | --- | --- | --- | --- | --- | --- | --- | --- | --- | --- | --- | --- | --- |
| CC(C)[C@H](N)C(=O)N[C@@H](CS)C(=O)N[C@@H](CCCNC(=N)N)C(=O)N[C@@H](CCCCN)C(=O)N1CCC[C@H]1C(=O)N[C@H](C(=O)N[C@H](C(=O)N[C@@H](CS)C(=O)N[C@@H](CCCNC(=N)N)C(=O)N[C@@H](CCCCN)C(=O)N1CCC[C@H]1C(=O)N[C@H](C(=O)N[C@H](C(=O)N[C@@H](CS)C(=O)N[C@@H](CCCNC(=N)N)C(=O)N[C@@H](CCCCN)C(=O)N1CCC[C@H]1C(=O)N[C@H](C(=O)N[C@H](C(=O)N[C@@H](CS)C(=O)N[C@@H](CCCNC(=N)N)C(=O)N[C@@H](CCCCN)C(=O)N1CCC[C@H]1C(=O)N[C@H](C(N)=O)C(C)C)C(C)C)C(C)C)C(C)C)C(C)C)C(C)C)C(C)C (H-VCRKPVVCRKPVVCRKPVVCRKPV-NH2) | 2 | 2 | 2 | 2 | 2 | 2 | 8 | 8 | 8 | 8 | 8 | 8 | > 64 µM | > 64 µM | 8 µM (≈ 22 µg/mL) | 8 µM (≈ 22 µg/mL) | 8 µM (≈ 22 µg/mL) | 8 µM (≈ 22 µg/mL) | 64 µM (≈ 176 µg/mL) | > 64 µM | MIC [21]: > 64 µM; MIC [22]: > 64 µM; MIC [23]: > 64 µM; MIC [24]: > 64 µM; MHC [25]: > 128 µM; hemolysis at up to 128 µM [26]: < 5%; viability at 128 µM [27]: > 90%; viability at 128 µM [28]: > 90% |
| CC(C)[C@H](N)C(=O)N[C@@H](CS)C(=O)N[C@@H](CCCNC(=N)N)C(=O)N[C@@H](CCCCN)C(=O)N1CCC[C@H]1C(=O)N[C@H](C(=O)N[C@H](C(=O)N[C@@H](CS)C(=O)N[C@@H](CCCNC(=N)N)C(=O)N[C@@H](CCCCN)C(=O)N1CCC[C@H]1C(=O)N[C@H](C(=O)N[C@H](C(=O)N[C@@H](CS)C(=O)N[C@@H](CCCNC(=N)N)C(=O)N[C@@H](CCCCN)C(=O)N1CCC[C@H]1C(=O)N[C@H](C(=O)N[C@H](C(=O)N[C@@H](CS)C(=O)N[C@@H](CCCNC(=N)N)C(=O)N[C@@H](CCCCN)C(=O)N1CCC[C@H]1C(=O)N[C@H](C(=O)N[C@H](C(=O)N[C@@H](CS)C(=O)N[C@@H](CCCNC(=N)N)C(=O)N[C@@H](CCCCN)C(=O)N1CCC[C@H]1C(=O)N[C@H](C(N)=O)C(C)C)C(C)C)C(C)C)C(C)C)C(C)C)C(C)C)C(C)C)C(C)C)C(C)C (H-VCRKPVVCRKPVVCRKPVVCRKPVVCRKPV-NH2) | 2 | 2 | 2 | 2 | 2 | 2 | 16 | 16 | 16 | 16 | 16 | 16 | > 64 µM | > 64 µM | 4 µM (≈ 13.7 µg/mL) | 4 µM (≈ 13.7 µg/mL) | 4 µM (≈ 13.7 µg/mL) | 4 µM (≈ 13.7 µg/mL) | 16 µM (≈ 54.9 µg/mL) | > 64 µM | MIC [21]: > 64 µM; MIC [22]: > 64 µM; MIC [23]: > 64 µM; MIC [24]: > 64 µM; MHC [25]: > 128 µM; hemolysis at up to 128 µM [26]: < 5%; viability at 128 µM [27]: > 90%; viability at 128 µM [28]: > 90% |
